# Laboratory results published in PMC7956620 (Molecules, 2021).
# Changes are numbered by the printed parent chain.
# How the values were obtained:
# Type in all cases: cell-based
# Settings in all cases: 100 µM chanoclavine, read-out: Inhibition Percentage (%)
# [1] = molecular target: T1, 5-HT3A receptor F130A mutant (Homo sapiens, UniProt P46098, F125A); test: two-electrode voltage clamp, F130A mutant receptor in Xenopus oocytes
# T1 construct: host or cells: Xenopus laevis oocytes injected with in vitro transcribed mRNA
# T1 sequence (P46098 24-478 F125A): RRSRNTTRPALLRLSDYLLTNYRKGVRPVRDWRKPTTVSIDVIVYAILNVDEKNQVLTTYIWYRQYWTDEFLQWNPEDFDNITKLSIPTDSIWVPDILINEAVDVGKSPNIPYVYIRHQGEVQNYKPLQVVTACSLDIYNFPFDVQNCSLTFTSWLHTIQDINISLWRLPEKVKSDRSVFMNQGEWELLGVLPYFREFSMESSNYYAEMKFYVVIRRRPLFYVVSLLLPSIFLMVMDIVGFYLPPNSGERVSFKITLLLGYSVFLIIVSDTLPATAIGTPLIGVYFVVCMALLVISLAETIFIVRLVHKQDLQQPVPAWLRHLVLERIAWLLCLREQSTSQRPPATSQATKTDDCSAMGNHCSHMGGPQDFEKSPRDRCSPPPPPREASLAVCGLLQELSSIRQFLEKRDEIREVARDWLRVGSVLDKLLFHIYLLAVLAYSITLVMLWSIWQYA
# Experimental: (§1) The site-directed mutation of one or two amino acids was performed using sense and antisense primers and Pfu polymerase (QuickChange Site-Directed Mutagenesis Kit; Agilent, Santa Clara, CA, USA) and amplified by polymerase chain reaction (PCR) to increase the target domain. After removing the existing methylated cDNA using Dpn Ⅰ, the PCR products were transformed into Escherichia coli strain DH5α. The cDNA of the 5-HT3A receptor was linearized by Xho Ⅰ at the end of the multi-cloning site, followed by transcription using T7 polymerase and a transcription kit (mMESSAGE mMACHINE T7 Transcription Kit; Thermo Fisher Scientific, Waltham, MA, USA). […]
# (§2) To isolate oocytes, female Xenopus laevis were put into a container filled with ice and left for about one hour. […] When the Xenopus oocytes were ready for injection, 50 ng of mRNA was injected with a nanoliter injector (Drummond Scientific, Vernon Hills, IL, USA). […]
# (§3) The oocytes in which mRNA was expressed during the incubation period allowed for the estimation of channel or receptor properties for observing drug and ligand potential interactions using a two-electrode voltage clamp (OC-725C; Warner Instruments, Hamden, CT, USA) and Digidata (1322A; Molecular Devices, Sunnyvale, CA, USA). […] The voltage and current electrodes were filled with 3 M KCl (0.3–0.7 MΩ) and analyzed at a −80 mV holding potential. […]
# [2] = molecular target: T2, 5-HT3A receptor V133A mutant (Homo sapiens, UniProt P46098, V128A); test: two-electrode voltage clamp, V133A mutant receptor in Xenopus oocytes
# T2 construct: host or cells: Xenopus laevis oocytes injected with in vitro transcribed mRNA
# T2 sequence (P46098 24-478 V128A): T1 sequence (P46098 24-478 F125A) with A102F, V105A
# Experimental: as §1, §2, §3
# [3] = molecular target: T3, 5-HT3A receptor R196A mutant (Homo sapiens, UniProt P46098, R191A); test: two-electrode voltage clamp, R196A mutant receptor in Xenopus oocytes
# T3 construct: host or cells: Xenopus laevis oocytes injected with in vitro transcribed mRNA
# T3 sequence (P46098 24-478 R191A): T1 sequence (P46098 24-478 F125A) with A102F, R168A
# Experimental: as §1, §2, §3
structure (smiles),measurement,setting,value
CN[C@@H]1Cc2c[nH]c3cccc(c23)[C@H]1/C=C(\C)CO [chanoclavine],inhibition at 100 µM,[1],9.36 ± 4.3%
same,inhibition at 100 µM,[2],67.2 ± 9.9%
same,inhibition at 100 µM,[3],82.1 ± 2.5%
